Experimental data published in patent US10689354B2, “Aminoazole derivative” (Teijin Pharma Limited, priority 2015, dated 2020).

Experiments:
human androgen receptor = target: T1, human androgen receptor (Homo sapiens, UniProt P10275); test: Reporter assay of an androgen receptor responsive sequence (luciferase, transiently transfected HEK293 cells); assay type: cell-based; details: 24 hours incubation, relative to activity of 100 nM DHT, read-out: AR transcriptive activity (pEC50) (converted)
T1 construct: expressed in transfected cells; host or cells: HEK293
T1 sequence (P10275 1-920): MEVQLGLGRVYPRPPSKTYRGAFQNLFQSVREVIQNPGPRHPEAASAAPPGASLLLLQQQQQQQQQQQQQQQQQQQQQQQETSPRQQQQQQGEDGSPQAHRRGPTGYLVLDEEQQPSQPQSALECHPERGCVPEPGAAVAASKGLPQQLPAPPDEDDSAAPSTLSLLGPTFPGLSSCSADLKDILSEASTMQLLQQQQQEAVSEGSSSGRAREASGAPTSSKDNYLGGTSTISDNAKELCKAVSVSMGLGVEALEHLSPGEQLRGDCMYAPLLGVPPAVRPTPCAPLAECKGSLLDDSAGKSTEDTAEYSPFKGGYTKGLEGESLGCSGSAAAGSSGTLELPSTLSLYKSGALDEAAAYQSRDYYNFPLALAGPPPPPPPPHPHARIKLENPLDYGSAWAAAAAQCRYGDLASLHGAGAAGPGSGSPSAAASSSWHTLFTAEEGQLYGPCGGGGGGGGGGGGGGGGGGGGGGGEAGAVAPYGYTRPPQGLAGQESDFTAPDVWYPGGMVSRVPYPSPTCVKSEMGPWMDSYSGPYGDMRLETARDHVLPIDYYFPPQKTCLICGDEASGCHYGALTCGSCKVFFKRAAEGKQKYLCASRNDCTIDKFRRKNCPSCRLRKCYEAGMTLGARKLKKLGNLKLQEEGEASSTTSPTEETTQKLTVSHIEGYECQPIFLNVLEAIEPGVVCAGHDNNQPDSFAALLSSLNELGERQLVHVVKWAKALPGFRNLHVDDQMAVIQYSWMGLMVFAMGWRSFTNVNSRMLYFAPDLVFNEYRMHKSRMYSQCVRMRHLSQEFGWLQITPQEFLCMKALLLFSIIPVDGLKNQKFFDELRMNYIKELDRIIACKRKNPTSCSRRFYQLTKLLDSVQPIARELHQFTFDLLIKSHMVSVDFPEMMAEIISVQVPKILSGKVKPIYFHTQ
Outline: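 Agonism scored as pEC50, fitted by 4-parameter curve against the response to 100 nM DHT, from dual-luciferase readout after 24 h compound treatment. Cells were HEK293 co-transfected (3 h) with human AR expression vector, androgen-responsive firefly reporter and Renilla control, in charcoal-stripped serum.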

[1] = target: T2, androgen receptor (AR-LBD) (Rattus norvegicus, UniProt P15207); test: Evaluation of androgen receptor affinity (PolarScreen Androgen Receptor Competitor Assay Kit, Red; fluorescence polarization); details: 22° C. for 5 hours, relative to binding rate of 1 μM DHT, read-out: AR affinity (pEC50) (converted)
T2 construct: 5 μL of 2×AR-LBD/Fluoromone AL Red Complex contained in the kit; purchased Invitrogen
T2 sequence (P15207 651-882 limits assumed): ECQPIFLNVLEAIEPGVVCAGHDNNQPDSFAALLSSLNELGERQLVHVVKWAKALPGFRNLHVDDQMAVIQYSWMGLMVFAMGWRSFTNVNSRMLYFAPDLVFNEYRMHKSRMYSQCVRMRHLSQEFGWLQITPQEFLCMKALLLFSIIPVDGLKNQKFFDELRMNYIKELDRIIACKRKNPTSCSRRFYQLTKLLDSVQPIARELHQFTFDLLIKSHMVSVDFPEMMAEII
Outline: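 Test compound and the 2× AR-LBD/Fluoromone AL Red complex were combined in duplicate wells. After reacting 5 h at 22° C, polarization was measured. pEC50 was derived by 4-parameter fitting, normalizing to binding obtained with 1 μM dihydrotestosterone.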

Row | Structure (SMILES) | EC50 (human androgen receptor) | EC50 [1]
1 | CS(=O)(=O)NC(=O)c1nc(N(Cc2cccc(F)c2)c2ccc(C#N)cc2)sc1Br [Example 243, 5-bromo-2-[4-cyano-N-[(3-fluorophenyl)methyl]anilino]-N-methylsulfonyl-thiazole-4-carboxamide] | 63.1 nM | 50.1 nM
2 | CS(=O)(=O)NC(=O)c1nc(N(Cc2ccc(F)cc2)c2ccc(C#N)cc2)sc1Br [Example 244, 5-bromo-2-[4-cyano-N-[(4-fluorophenyl)methyl]anilino]-N-methylsulfonyl-thiazole-4-carboxamide] | 39.8 nM | 63.1 nM
3 | CS(=O)(=O)NC(=O)c1nc(N(Cc2cccc(Cl)c2)c2ccc(C#N)cc2)sc1Br [Example 247, 5-bromo-2-[N-[(3-chlorophenyl)methyl]-4-cyano-anilino]-N-methylsulfonyl-thiazole-4-carboxamide] | 31.6 nM | 31.6 nM
4 | CS(=O)(=O)NC(=O)c1nc(N(Cc2ccc(C(F)(F)F)cc2)c2ccc(C#N)cc2)sc1Br [Example 251, 5-bromo-2-[4-cyano-N-[[4-(trifluoromethyl)phenyl]methyl]anilino]-N-methylsulfonyl-thiazole-4-carboxamide] | 25.1 nM | 39.8 nM
5 | CS(=O)(=O)NC(=O)c1nc(N(Cc2cccc(OC(F)(F)F)c2)c2ccc(C#N)cc2)sc1Br [Example 252, 5-bromo-2-[4-cyano-N-[[3-(trifluoromethoxy)phenyl]methyl]anilino]-N-methylsulfonyl-thiazole-4-carboxamide] | 79.4 nM | 31.6 nM
6 | CS(=O)(=O)NC(=O)c1nc(N(Cc2ccccc2OC(F)F)c2ccc(C#N)cc2)sc1Br [Example 254, 5-bromo-2-[4-cyano-N-[[2-(difluoromethoxy)phenyl]methyl]anilino]-N-methylsulfonyl-thiazole-4-carboxamide] | 158 nM | 39.8 nM
7 | CS(=O)(=O)NC(=O)c1nc(N(Cc2ccccc2F)c2ccc(C#N)cc2)sc1Cl [Example 257, 5-chloro-2-[4-cyano-N-[(2-fluorophenyl)methyl]anilino]-N-methylsulfonyl-thiazole-4-carboxamide] | 79.4 nM | 100 nM
8 | CS(=O)(=O)NC(=O)c1nc(N(Cc2ccccc2Cl)c2ccc(C#N)cc2)sc1Cl [Example 263, 5-chloro-2-[N-[(2-chlorophenyl)methyl]-4-cyano-anilino]-N-methylsulfonyl-thiazole-4-carboxamide] | 316 nM | 63.1 nM
9 | COc1cccc(CN(c2ccc(C#N)cc2)c2nc(C(=O)NS(C)(=O)=O)c(Br)s2)c1 [Example 265, 5-bromo-2-[4-cyano-N-[(3-methoxyphenyl)methyl]anilino]-N-methylsulfonyl-thiazole-4-carboxamide] | 158 nM | 50.1 nM
10 | COc1ccccc1CN(c1ccc(C#N)cc1)c1nc(C(=O)NS(C)(=O)=O)c(Cl)s1 [Example 270, 5-chloro-2-[4-cyano-N-[(2-methoxyphenyl)methyl]anilino]-N-methylsulfonyl-thiazole-4-carboxamide] | 251 nM | 79.4 nM

The remaining lines, values ahead:

Row | EC50 (human androgen receptor) | EC50 [1] | Structure (SMILES)
11 | 25.1 nM | 31.6 nM | CS(=O)(=O)NC(=O)c1nc(N(Cc2ccc(Cl)cc2)c2ccc(C#N)cc2)sc1Br [Example 248, 5-bromo-2-[N-[(4-chlorophenyl)methyl]-4-cyano-anilino]-N-methylsulfonyl-thiazole-4-carboxamide]
12 | 79.4 nM | 31.6 nM | CS(=O)(=O)NC(=O)c1nc(N(Cc2ccc(OC(F)(F)F)cc2)c2ccc(C#N)cc2)sc1Br [Example 253, 5-bromo-2-[4-cyano-N-[[4-(trifluoromethoxy)phenyl]methyl]anilino]-N-methylsulfonyl-thiazole-4-carboxamide]
13 | 79.4 nM | 50.1 nM | CS(=O)(=O)NC(=O)c1nc(N(Cc2cccc(OC(F)F)c2)c2ccc(C#N)cc2)sc1Br [Example 255, 5-bromo-2-[4-cyano-N-[[3-(difluoromethoxy)phenyl]methyl]anilino]-N-methylsulfonyl-thiazole-4-carboxamide]
14 | 50.1 nM | 50.1 nM | CS(=O)(=O)NC(=O)c1nc(N(Cc2ccc(OC(F)F)cc2)c2ccc(C#N)cc2)sc1Br [Example 256, 5-bromo-2-[4-cyano-N-[[4-(difluoromethoxy)phenyl]methyl]anilino]-N-methylsulfonyl-thiazole-4-carboxamide]
15 | 100 nM | 63.1 nM | CS(=O)(=O)NC(=O)c1nc(N(Cc2cccc(F)c2)c2ccc(C#N)cc2)sc1Cl [Example 258, 5-chloro-2-[4-cyano-N-[(3-fluorophenyl)methyl]anilino]-N-methylsulfonyl-thiazole-4-carboxamide]
16 | 39.8 nM | 50.1 nM | CS(=O)(=O)NC(=O)c1nc(N(Cc2ccc(F)cc2)c2ccc(C#N)cc2)sc1Cl [Example 262, 5-chloro-2-[4-cyano-N-[(4-fluorophenyl)methyl]anilino]-N-methylsulfonyl-thiazole-4-carboxamide]
17 | 63.1 nM | 50.1 nM | CS(=O)(=O)NC(=O)c1nc(N(Cc2cccc(Cl)c2)c2ccc(C#N)cc2)sc1Cl [Example 268, 5-chloro-2-[N-[(3-chlorophenyl)methyl]-4-cyano-anilino]-N-methylsulfonyl-thiazole-4-carboxamide]
18 | 20 nM | 25.1 nM | CS(=O)(=O)NC(=O)c1nc(N(Cc2ccc(Cl)cc2)c2ccc(C#N)cc2)sc1Cl [Example 269, 5-chloro-2-[N-[(4-chlorophenyl)methyl]-4-cyano-anilino]-N-methylsulfonyl-thiazole-4-carboxamide]
19 | 50.1 nM | 79.4 nM | COc1ccc(CN(c2ccc(C#N)cc2)c2nc(C(=O)NS(C)(=O)=O)c(Cl)s2)cc1 [Example 271, 5-chloro-2-[4-cyano-N-[(4-methoxyphenyl)methyl]anilino]-N-methylsulfonyl-thiazole-4-carboxamide]
20 | 25.1 nM | 31.6 nM | CS(=O)(=O)NC(=O)c1nc(N(Cc2ccc(C(F)(F)F)cc2)c2ccc(C#N)cc2)sc1Cl [Example 272, 5-chloro-2-[4-cyano-N-[[4-(trifluoromethyl)phenyl]methyl]anilino]-N-methylsulfonyl-thiazole-4-carboxamide]
21 | 63.1 nM | 31.6 nM | CS(=O)(=O)NC(=O)c1nc(N(Cc2cccc(OC(F)(F)F)c2)c2ccc(C#N)cc2)sc1Cl [Example 273, 5-chloro-2-[4-cyano-N-[[3-(trifluoromethoxy)phenyl]methyl]anilino]-N-methylsulfonyl-thiazole-4-carboxamide]
22 | 79.4 nM | 39.8 nM | CS(=O)(=O)NC(=O)c1nc(N(Cc2ccc(OC(F)(F)F)cc2)c2ccc(C#N)cc2)sc1Cl [Example 274, 5-chloro-2-[4-cyano-N-[[4-(trifluoromethoxy)phenyl]methyl]anilino]-N-methylsulfonyl-thiazole-4-carboxamide]
23 | 316 nM | 63.1 nM | CS(=O)(=O)NC(=O)c1nc(N(Cc2ccccc2OC(F)F)c2ccc(C#N)cc2)sc1Cl [Example 275, 5-chloro-2-[4-cyano-N-[[2-(difluoromethoxy)phenyl]methyl]anilino]-N-methylsulfonyl-thiazole-4-carboxamide]
24 | 126 nM | 50.1 nM | CS(=O)(=O)NC(=O)c1nc(N(Cc2cccc(OC(F)F)c2)c2ccc(C#N)cc2)sc1Cl [Example 276, 5-chloro-2-[4-cyano-N-[[3-(difluoromethoxy)phenyl]methyl]anilino]-N-methylsulfonyl-thiazole-4-carboxamide]
25 | 50.1 nM | 63.1 nM | CS(=O)(=O)NC(=O)c1nc(N(Cc2ccc(OC(F)F)cc2)c2ccc(C#N)cc2)sc1Cl [Example 277, 5-chloro-2-[4-cyano-N-[[4-(difluoromethoxy)phenyl]methyl]anilino]-N-methylsulfonyl-thiazole-4-carboxamide]
